Patent publication US20240101570A1 (AMGEN INC., priority 2020, published 2024)

Key:
HCT116 MTAP null cells = experiment: HCT116 MTAP null cell proliferation / viability (CellTiter-Glo, 6 days); format: cell-based; conditions: HCT116-MTAP null, 144 h, HCT116 MTAP null cells, 6 days, CellTiter-Glo; read-out: HCT-116 MTAP null IC50
How it was run: (§1)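 Viability read by CellTiter-Glo after 6-day compound exposure of MTAP-null and wild-type HCT116 cells grown in RPMI 1640 with 10% FBS. Dosing used 1:3 steps from 1 or 10 μM (8-9 points) or 1:2 steps from 10 or 50 μM (22 points); IC50 taken where fitted curve crosses 50% of control.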

HCT116 WT cells = experiment: HCT116 WT cell proliferation / viability (CellTiter-Glo, 6 days); format: cell-based; conditions: Homo sapiens, HCT-116, 144 h, HCT116 WT cells, 6 days, CellTiter-Glo; read-out: HCT-116 WT IC50
How it was run: as §1

IC50 (HCT116 MTAP null cells)	IC50 (HCT116 WT cells)	SMILES
193 nM	7250 nM	CCN(Cc1ccc(Cl)cn1)C(=O)c1ccc2nc(N)c3c(c2c1)COC3 [Example 701, 4-amino-N-((5-chloro-2-pyridinyl)methyl)-N-ethyl-1,3-dihydrofuro[3,4-c]quinoline-8-carboxamide]
470 nM	4120 nM	CN(Cc1ccc(Cl)cn1)C(=O)c1ccc2nc(N)c3c(c2c1)COC3 [Example 702, 4-amino-N-((5-chloro-2-pyridinyl)methyl)-N-methyl-1,3-dihydrofuro[3,4-c]quinoline-8-carboxamide]
337 nM	8150 nM	CCN(Cc1ccc(C(F)(F)F)nc1)C(=O)c1ccc2nc(N)c3c(c2c1)COC3 [Example 703, 4-amino-N-ethyl-N-((6-(trifluoromethyl)-3-pyridinyl)methyl)-1,3-dihydrofuro[3,4-c]quinoline-8-carboxamide]
549 nM	> 10000 nM	CCN(Cc1ccc(C(F)(F)F)nc1)C(=O)c1cc2c3c(c(N)nc2cn1)COC3 [Example 704, 4-amino-N-ethyl-N-((6-(trifluoromethyl)-3-pyridinyl)methyl)-1,3-dihydrofuro[3,4-c][1,7]naphthyridine-8-carboxamide]
172 nM	3450 nM	CCN(Cc1ccc(C(F)(F)F)cc1)C(=O)c1ccc2nc(N)c3c(c2c1)COC3 [Example 706, 4-amino-N-ethyl-N-(4-(trifluoromethyl)benzyl)-1,3-dihydrofuro[3,4-c]quinoline-8-carboxamide]
106 nM	2870 nM	CCN(Cc1ccc(C(F)(F)F)cc1)C(=O)c1cc2c3c(c(N)nc2cn1)COC3 [Example 707, 4-amino-N-ethyl-N-(4-(trifluoromethyl)benzyl)-1,3-dihydrofuro[3,4-c][1,7]naphthyridine-8-carboxamide]
153 nM	8220 nM	CCN(Cc1ccc(Br)nn1)C(=O)c1ccc2nc(N)c3c(c2c1)COC3 [Example 708, 4-amino-N-((6-bromo-3-pyridazinyl)methyl)-N-ethyl-1,3-dihydrofuro[3,4-c]quinoline-8-carboxamide]
484 nM	> 10000 nM	CCN(Cc1ccc(Br)nn1)C(=O)c1cc2c3c(c(N)nc2cn1)COC3 [Example 710, 4-amino-N-((6-bromo-3-pyridazinyl)methyl)-N-ethyl-1,3-dihydrofuro[3,4-c][1,7]naphthyridine-8-carboxamide]
148 nM	4780 nM	Cn1cc(N(Cc2ccc(C(F)(F)F)nn2)C(=O)c2cc3c4c(c(N)nc3cn2)COC4)cn1 [Example 711, 4-amino-N-(1-methyl-1H-pyrazol-4-yl)-N-((6-(trifluoromethyl)-3-pyridazinyl)methyl)-1,3-dihydrofuro[3,4-c][1,7]naphthyridine-8-carboxamide]
2000 nM	> 50000 nM	Nc1nc2cnc(C(=O)N(Cc3ccc(C(F)(F)F)nn3)CC(F)(F)F)cc2c2c1COC2 [Example 712, 4-amino-N-(2,2,2-trifluoroethyl)-N-((6-(trifluoromethyl)-3-pyridazinyl)methyl)-1,3-dihydrofuro[3,4-c][1,7]naphthyridine-8-carboxamide]
5110 nM	> 50000 nM	Nc1nc2ccc(C(=O)N(Cc3ccc(C(F)(F)F)nn3)C3COC3)cc2c2c1COC2 [Example 713, 4-amino-N-(3-oxetanyl)-N-((6-(trifluoromethyl)-3-pyridazinyl)methyl)-1,3-dihydrofuro[3,4-c]quinoline-8-carboxamide]
8 nM	124 nM	Cn1cc(N(Cc2ccc(C(F)(F)F)cn2)C(=O)c2cc3c4c(c(N)nc3cc2F)COC4)cn1 [Example 714, 4-amino-7-fluoro-N-(1-methyl-1H-pyrazol-4-yl)-N-((5-(trifluoromethyl)-2-pyridinyl)methyl)-1,3-dihydrofuro[3,4-c]quinoline-8-carboxamide]
6 nM	70 nM	Cn1cc(N(Cc2ccc(C(F)(F)F)cn2)C(=O)c2cc3c4c(c(N)nc3cc2Cl)COC4)cn1 [Example 715, 4-amino-7-chloro-N-(1-methyl-1H-pyrazol-4-yl)-N-((5-(trifluoromethyl)-2-pyridinyl)methyl)-1,3-dihydrofuro[3,4-c]quinoline-8-carboxamide]
609 nM	7760 nM	CC(C)N(Cc1ccc(Cl)cn1)C(=O)c1ccc2nc(N)c3c(c2c1)COC3 [Example 717, 4-amino-N-((5-chloro-2-pyridinyl)methyl)-N-(2-propanyl)-1,3-dihydrofuro[3,4-c]quinoline-8-carboxamide]
281 nM	16400 nM	CC(C)N(Cc1ccc(Cl)cn1)C(=O)c1cc2c3c(c(N)nc2cn1)COC3 [Example 718, 4-amino-N-((5-chloro-2-pyridinyl)methyl)-N-(2-propanyl)-1,3-dihydrofuro[3,4-c][1,7]naphthyridine-8-carboxamide]
14900 nM	> 50000 nM	CCN(Cc1ncn(C)n1)C(=O)c1ccc2nc(N)c3c(c2c1)CO[C@@H]3C [Example 720, (3R)-4-amino-N-ethyl-3-methyl-N-((1-methyl-1H-1,2,4-triazol-3-yl)methyl)-1,3-dihydrofuro[3,4-c]quinoline-8-carboxamide]
209 nM	9410 nM	Nc1nc2cnc(C(=O)N(Cc3ccc(C(F)(F)F)nn3)C3CCC3)cc2c2c1COC2 [Example 721, 4-amino-N-cyclobutyl-N-((6-(trifluoromethyl)-3-pyridazinyl)methyl)-1,3-dihydrofuro[3,4-c][1,7]naphthyridine-8-carboxamide]
85 nM	3350 nM	C[C@H]1OCc2c1c(N)nc1ccc(C(=O)N(Cc3ccc(C(F)(F)F)nn3)C3CCC3)cc21 [Example 722, (3R)-4-amino-N-cyclobutyl-3-methyl-N-((6-(trifluoromethyl)-3-pyridazinyl)methyl)-1,3-dihydrofuro[3,4-c]quinoline-8-carboxamide]
157 nM	6020 nM	CCN(Cc1ccc(OC(F)F)nn1)C(=O)c1ccc2nc(N)c3c(c2c1)COC3 [Example 723, 4-amino-N-((6-(difluoromethoxy)-3-pyridazinyl)methyl)-N-ethyl-1,3-dihydrofuro[3,4-c]quinoline-8-carboxamide]
54 nM	2440 nM	CCN(Cc1ccc(OC(F)F)nn1)C(=O)c1cc2c3c(c(N)nc2cc1F)COC3 [Example 724, 4-amino-N-((6-(difluoromethoxy)-3-pyridazinyl)methyl)-N-ethyl-7-fluoro-1,3-dihydrofuro[3,4-c]quinoline-8-carboxamide]
109 nM	7520 nM	CCN(Cc1ccc(OC(F)F)nn1)C(=O)c1ccc2nc(N)c3c(c2c1)CO[C@@H]3C [Example 726, (3R)-4-amino-N-((6-(difluoromethoxy)-3-pyridazinyl)methyl)-N-ethyl-3-methyl-1,3-dihydrofuro[3,4-c]quinoline-8-carboxamide]
47 nM	663 nM	COC[C@@H](C)N(Cc1ccc(C(F)(F)F)cn1)C(=O)c1cc2c3c(c(N)nc2cn1)COC3 [Example 728, 4-amino-N-((2R)-1-methoxy-2-propanyl)-N-((5-(trifluoromethyl)-2-pyridinyl)methyl)-1,3-dihydrofuro[3,4-c][1,7]naphthyridine-8-carboxamide]
19 nM	534 nM	Nc1nc2cc(F)c(C(=O)N(Cc3ccc(C(F)(F)F)cn3)c3cnn(C(F)(F)F)c3)cc2c2c1COC2 [Example 729, 4-amino-7-fluoro-N-(1-(trifluoromethyl)-1H-pyrazol-4-yl)-N-((5-(trifluoromethyl)-2-pyridinyl)methyl)-1,3-dihydrofuro[3,4-c]quinoline-8-carboxamide]
17 nM	620 nM	Nc1nc2cc(F)c(C(=O)N(Cc3ccc(C(F)(F)F)nn3)CC3CC3)cc2c2c1COC2 [Example 730, 4-amino-N-(cyclopropylmethyl)-7-fluoro-N-((6-(trifluoromethyl)-3-pyridazinyl)methyl)-1,3-dihydrofuro[3,4-c]quinoline-8-carboxamide]
47 nM	2090 nM	Cn1ncc2c3cc(C(=O)N(Cc4ccc(C(F)(F)F)nn4)CC4CC4)c(F)cc3nc(N)c21 [Example 731, 4-amino-N-(cyclopropylmethyl)-7-fluoro-3-methyl-N-((6-(trifluoromethyl)-3-pyridazinyl)methyl)-3H-pyrazolo[3,4-c]quinoline-8-carboxamide]
87 nM	2850 nM	Nc1nc2cnc(C(=O)N(Cc3ccc(C(F)(F)F)cn3)c3cnn(C(F)(F)F)c3)cc2c2c1COC2 [Example 732, 4-amino-N-(1-(trifluoromethyl)-1H-pyrazol-4-yl)-N-((5-(trifluoromethyl)-2-pyridinyl)methyl)-1,3-dihydrofuro[3,4-c][1,7]naphthyridine-8-carboxamide]
290 nM	6300 nM	CC(C)N(Cc1ccc(C(F)(F)F)cc1)C(=O)c1cc2c3c(c(N)nc2cn1)COC3 [Example 733, 4-amino-N-(2-propanyl)-N-(4-(trifluoromethyl)benzyl)-1,3-dihydrofuro[3,4-c][1,7]naphthyridine-8-carboxamide]
383 nM	14400 nM	Nc1nc2cnc(C(=O)N(Cc3ccc(C(F)(F)F)cc3)C3CC3)cc2c2c1COC2 [Example 734, 4-amino-N-cyclopropyl-N-(4-(trifluoromethyl)benzyl)-1,3-dihydrofuro[3,4-c][1,7]naphthyridine-8-carboxamide]
5500 nM	36200 nM	C[C@@H](c1ccc(C(F)(F)F)cn1)N(C(=O)c1ccc2nc(N)c3c(c2c1)COC3)C1CC1 [Example 735, 4-amino-N-cyclopropyl-N-((1S)-1-(5-(trifluoromethyl)-2-pyridinyl)ethyl)-1,3-dihydrofuro[3,4-c]quinoline-8-carboxamide]
